{
  "source": "ChEMBL document CHEMBL1151469",
  "about": "“Cytotoxic activity of N-chlorotaurine on Acanthamoeba spp” (Antimicrob Agents Chemother, 2008)",
  "key": {"[1]": {"system": "Acanthamoeba polyphaga", "experiment": "Amoebicidal activity against Trophozoites of Acanthamoeba polyphaga 5SU at 55 mM in phosphate buffered saline at pH 7 after 1 hr by hemocytometer using trypan blue stain in presence of 190 mM ammonium chloride", "assay_type": "functional, organism-based"}, "[2]": {"system": "Acanthamoeba castellanii", "experiment": "Amoebicidal activity against Trophozoites of Acanthamoeba castellanii 4CL assessed as killing time at 10 mM in phosphate buffered saline at pH 7 by hemocytometer using trypan blue stain", "assay_type": "functional"}, "[3]": {"system": "Acanthamoeba hatchetti", "experiment": "Amoebicidal activity against Trophozoites of Acanthamoeba hatchetti 11DS in phosphate buffered saline at pH 7 after 1 hr by hemocytometer using trypan blue stain in presence of 34 mM ammonium chloride", "assay_type": "functional, organism-based"}, "[4]": {"system": "Acanthamoeba hatchetti", "experiment": "Amoebicidal activity against Trophozoites of Acanthamoeba hatchetti 11DS in peptone yeast extract glucose medium at pH 7 after 24 hrs by hemocytometer using trypan blue stain", "assay_type": "functional, organism-based"}, "[5]": {"system": "Acanthamoeba hatchetti", "experiment": "Amoebicidal activity against Trophozoites of Acanthamoeba hatchetti 11DS in peptone yeast extract glucose medium at pH 7 after 1 hr by hemocytometer using trypan blue stain in presence of 68 mM ammonium chloride", "assay_type": "functional, organism-based"}, "[6]": {"system": "Acanthamoeba polyphaga", "experiment": "Amoebicidal activity against Trophozoites of Acanthamoeba polyphaga 5SU assessed as log reduction in cell count at 20 mM in peptone yeast extract glucose medium at pH 7 after 24 hrs by hemocytometer using trypan blue stain", "assay_type": "functional"}, "[7]": {"system": "Acanthamoeba hatchetti", "experiment": "Amoebicidal activity against Trophozoites of Acanthamoeba hatchetti 11DS at 55 mM in phosphate buffered saline at pH 7 after 1 hr by hemocytometer using trypan blue staining in presence of 190 mM ammonium chloride", "assay_type": "functional, organism-based"}, "[8]": {"system": "Acanthamoeba hatchetti", "experiment": "Amoebicidal activity against Trophozoites of Acanthamoeba hatchetti 11DS in peptone yeast extract glucose medium at pH 7 after 1 hr by hemocytometer using trypan blue stain", "assay_type": "functional, organism-based"}, "[9]": {"system": "Acanthamoeba hatchetti", "experiment": "Amoebicidal activity against excysted trophozoites of Acanthamoeba hatchetti 11DS at 55 mM in peptone yeast extract glucose medium after 24 hrs by hemocytometer using trypan blue stain", "assay_type": "functional"}, "[10]": {"system": "Acanthamoeba hatchetti", "experiment": "Amoebicidal activity against Trophozoites of Acanthamoeba hatchetti 11DS assessed as complete loss of viability at 55 mM in phosphate buffered saline incubated in xenic agar medium after 14 days by hemocytometer using trypan blue stain in presence of 190 mM ammonium chloride", "assay_type": "functional, organism-based"}, "[11]": {"system": "Acanthamoeba polyphaga", "experiment": "Amoebicidal activity against Trophozoites of Acanthamoeba polyphaga 5SU assessed as killing time at 55 mM in phosphate buffered saline at pH 7 by hemocytometer using trypan blue stain", "assay_type": "functional"}, "[12]": {"system": "Acanthamoeba hatchetti", "experiment": "Amoebicidal activity against Trophozoites of Acanthamoeba hatchetti 11DS assessed as reduction of killing time at 10 mM in phosphate buffered saline at pH 5 by hemocytometer using trypan blue stain in presence of 160 mM beta-alanine", "assay_type": "functional"}, "[13]": {"system": "Acanthamoeba castellanii", "experiment": "Amoebicidal activity against excysted trophozoites of Acanthamoeba castellanii 40AB at 55 mM in peptone yeast extract glucose medium after 11 days by hemocytometer using trypan blue stain", "assay_type": "functional"}, "[14]": {"system": "Acanthamoeba hatchetti", "experiment": "Amoebicidal activity against excysted trophozoites of Acanthamoeba hatchetti 11DS at 55 mM in peptone yeast extract glucose medium after 11 days by hemocytometer using trypan blue stain", "assay_type": "functional"}, "[15]": {"system": "Acanthamoeba hatchetti", "experiment": "Amoebicidal activity against Trophozoites of Acanthamoeba hatchetti 11DS assessed as increase in reduction in cell count at 20 mM in peptone yeast extract glucose medium at pH 7 after 6 hrs by hemocytometer using trypan blue stain in presence of 68 mM ammonium chloride", "assay_type": "functional, organism-based"}, "[16]": {"system": "Acanthamoeba castellanii", "experiment": "Amoebicidal activity against excysted trophozoites of Acanthamoeba castellanii 40AB at 55 mM in peptone yeast extract glucose medium after 4 days by hemocytometer using trypan blue stain", "assay_type": "functional"}, "[17]": {"system": "Acanthamoeba polyphaga", "experiment": "Amoebicidal activity against Trophozoites of Acanthamoeba polyphaga 5SU assessed as prevention of sporadic cysts formation at 55 mM in phosphate buffered saline at pH 7 by hemocytometer using trypan blue stain", "assay_type": "functional, organism-based"}, "[18]": {"system": "Acanthamoeba hatchetti", "experiment": "Amoebicidal activity against Trophozoites of Acanthamoeba hatchetti 11DS in phosphate buffered saline at pH 7 after 6 hrs by hemocytometer using trypan blue stain", "assay_type": "functional, organism-based"}, "[19]": {"system": "Acanthamoeba hatchetti", "experiment": "Amoebicidal activity against Trophozoites of Acanthamoeba hatchetti 11DS assessed as log reduction in cell count at 10 mM in phosphate buffered saline at pH 5 after 24 hrs by hemocytometer using trypan blue stain in presence of 34 mM ammonium chloride", "assay_type": "functional, organism-based"}, "[20]": {"system": "Acanthamoeba hatchetti", "experiment": "Amoebicidal activity against Trophozoites of Acanthamoeba hatchetti 11DS assessed as log reduction in cell count at 10 mM in phosphate buffered saline at pH 5 after 24 hrs by hemocytometer using trypan blue stain", "assay_type": "functional, organism-based"}, "[21]": {"system": "Acanthamoeba hatchetti", "experiment": "Amoebicidal activity against Trophozoites of Acanthamoeba hatchetti 11DS assessed as log reduction in cell count at 10 mM in phosphate buffered saline at pH 5 within 1 hr by hemocytometer using trypan blue stain in presence of 290 mM ammonium chloride", "assay_type": "functional"}, "[22]": {"system": "Acanthamoeba polyphaga", "experiment": "Amoebicidal activity against Trophozoites of Acanthamoeba polyphaga 5SU assessed as rounding of cells at 55 mM in phosphate buffered saline at pH 7 after 15 mins by hemocytometer using trypan blue stain", "assay_type": "functional, organism-based"}, "[23]": {"system": "Acanthamoeba polyphaga", "experiment": "Amoebicidal activity against excysted trophozoites of Acanthamoeba polyphaga 5SU at 55 mM in peptone yeast extract glucose medium after 6 days by hemocytometer using trypan blue stain", "assay_type": "functional"}, "[24]": {"system": "Acanthamoeba polyphaga", "experiment": "Amoebicidal activity against Trophozoites of Acanthamoeba polyphaga 5SU assessed as complete killing time at 55 mM in phosphate buffered saline at pH 7 after 6 hrs by hemocytometer using trypan blue stain in presence of 190 mM ammonium chloride", "assay_type": "functional, organism-based"}, "[25]": {"system": "Acanthamoeba polyphaga", "experiment": "Amoebicidal activity against Trophozoites of Acanthamoeba polyphaga 5SU assessed as killing time at 20 mM in peptone yeast extract glucose medium at pH 7 by hemocytometer using trypan blue stain", "assay_type": "functional"}, "[26]": {"system": "Acanthamoeba polyphaga", "experiment": "Amoebicidal activity against Trophozoites of Acanthamoeba polyphaga 5SU assessed as reduction in killing time at 10 mM in phosphate buffered saline at pH 5 by hemocytometer using trypan blue stain in presence of 160 mM beta-alanine", "assay_type": "functional, organism-based"}, "[27]": {"system": "Acanthamoeba hatchetti", "experiment": "Amoebicidal activity against Trophozoites of Acanthamoeba hatchetti 11DS assessed as log reduction in cell count at 10 mM in phosphate buffered saline at pH 7 after 6 hrs by hemocytometer using trypan blue stain", "assay_type": "functional"}, "[28]": {"system": "Acanthamoeba polyphaga", "experiment": "Amoebicidal activity against Trophozoites of Acanthamoeba polyphaga 5SU assessed as increase in reduction in cell count at 20 mM in peptone yeast extract glucose medium at pH 7 after 6 hrs by hemocytometer using trypan blue stain in presence of 68 mM ammonium chloride", "assay_type": "functional, organism-based"}, "[29]": {"system": "Acanthamoeba hatchetti", "experiment": "Amoebicidal activity against Trophozoites of Acanthamoeba hatchetti 11DS in phosphate buffered saline at pH 7 after 24 hrs by hemocytometer using trypan blue stain", "assay_type": "functional, organism-based"}, "[30]": {"system": "Acanthamoeba castellanii", "experiment": "Amoebicidal activity against Trophozoites of Acanthamoeba castellanii 40AB assessed as log reduction in cell count at 10 mM in phosphate buffered saline at pH 7 after 6 hrs by hemocytometer using trypan blue stain", "assay_type": "functional"}, "[31]": {"system": "Acanthamoeba polyphaga", "experiment": "Amoebicidal activity against Trophozoites of Acanthamoeba polyphaga 5SU in phosphate buffered saline at pH 7 after 6 hrs by hemocytometer using trypan blue stain", "assay_type": "functional, organism-based"}, "[32]": {"system": "Acanthamoeba hatchetti", "experiment": "Amoebicidal activity against Trophozoites of Acanthamoeba hatchetti 11DS assessed as killing time at 55 mM in peptone yeast extract glucose medium at pH 7 by hemocytometer using trypan blue stain", "assay_type": "functional"}, "[33]": {"system": "Acanthamoeba hatchetti", "experiment": "Amoebicidal activity against excysted trophozoites of Acanthamoeba hatchetti 11DS at 55 mM in peptone yeast extract glucose medium after 4 days by hemocytometer using trypan blue stain", "assay_type": "functional"}, "[34]": {"system": "Acanthamoeba hatchetti", "experiment": "Amoebicidal activity against Trophozoites of Acanthamoeba hatchetti 11DS assessed as rounding of the cells at 0.16 M in peptone yeast extract glucose medium at pH 7 by hemocytometer using trypan blue stain", "assay_type": "functional, organism-based"}},
  "note": "The source made the active and inactive calls. The calls are words filed in the database; no cut-off is given here.",
  "data": [
    {"smiles": "O=S(=O)(O)CCNCl", "values": [
      {"measurement": "Activity", "setting": "[1]", "value": "Active"},
      {"measurement": "Activity", "setting": "[2]", "value": 36, "unit": "h"},
      {"measurement": "EC50", "setting": "[3]", "value": 12.9, "unit": "mM"},
      {"measurement": "EC50", "setting": "[4]", "value": 7.38, "unit": "mM"},
      {"measurement": "EC50", "setting": "[5]", "value": 13.9, "unit": "mM"},
      {"measurement": "Activity", "setting": "[6]", "value": 2},
      {"measurement": "Activity", "setting": "[7]", "value": "inactive"},
      {"measurement": "EC50", "setting": "[8]", "value": 10.1, "unit": "mM"},
      {"measurement": "Activity", "setting": "[9]", "value": 4600},
      {"measurement": "Activity", "setting": "[10]", "value": "inactive"},
      {"measurement": "Activity", "setting": "[11]", "value": 1, "unit": "h"},
      {"measurement": "Activity", "setting": "[12]", "value": 15, "unit": "h"},
      {"measurement": "Activity", "setting": "[13]", "value": 130000},
      {"measurement": "Activity", "setting": "[14]", "value": 410000},
      {"measurement": "Activity", "setting": "[15]", "value": "Active"},
      {"measurement": "Activity", "setting": "[16]", "value": 13000},
      {"measurement": "Activity", "setting": "[17]", "value": "inactive"},
      {"measurement": "EC50", "setting": "[18]", "value": 3.89, "unit": "mM"},
      {"measurement": "EC90", "setting": "[18]", "value": 7.71, "unit": "mM"},
      {"measurement": "Activity", "setting": "[19]", "value": "inactive"},
      {"measurement": "Activity", "setting": "[20]", "value": "Active"},
      {"measurement": "Activity", "setting": "[21]", "value": 2},
      {"measurement": "Activity", "setting": "[22]", "value": "Active"},
      {"measurement": "Activity", "setting": "[23]", "value": 18000},
      {"measurement": "Activity", "setting": "[24]", "value": "Active"},
      {"measurement": "Activity", "setting": "[25]", "value": 36, "unit": "h"},
      {"measurement": "Activity", "setting": "[26]", "value": "inactive"},
      {"measurement": "Activity", "setting": "[27]", "value": 2},
      {"measurement": "Activity", "setting": "[28]", "value": "inactive"},
      {"measurement": "EC50", "setting": "[29]", "value": 3.65, "unit": "mM"},
      {"measurement": "EC90", "setting": "[29]", "value": 7.56, "unit": "mM"},
      {"measurement": "Activity", "setting": "[30]", "value": 2},
      {"measurement": "EC50", "setting": "[31]", "value": 4, "unit": "mM"},
      {"measurement": "EC90", "setting": "[31]", "value": 7.95, "unit": "mM"},
      {"measurement": "Activity", "setting": "[32]", "value": 3, "unit": "h"},
      {"measurement": "Activity", "setting": "[33]", "value": 100000},
      {"measurement": "Activity", "setting": "[34]", "value": "Active"}
    ]}
  ]
}
